Test results published in patent publication US9326986B2, “Quinazolinone, quinolone and related analogs as sirtuin modulators” (GLAXOSMITHKLINE LLC, priority 2008, dated 2016).

Biological target: T1, SIRT1 (Homo sapiens, UniProt Q96EB6)
T1 sequence (Q96EB6 1-747): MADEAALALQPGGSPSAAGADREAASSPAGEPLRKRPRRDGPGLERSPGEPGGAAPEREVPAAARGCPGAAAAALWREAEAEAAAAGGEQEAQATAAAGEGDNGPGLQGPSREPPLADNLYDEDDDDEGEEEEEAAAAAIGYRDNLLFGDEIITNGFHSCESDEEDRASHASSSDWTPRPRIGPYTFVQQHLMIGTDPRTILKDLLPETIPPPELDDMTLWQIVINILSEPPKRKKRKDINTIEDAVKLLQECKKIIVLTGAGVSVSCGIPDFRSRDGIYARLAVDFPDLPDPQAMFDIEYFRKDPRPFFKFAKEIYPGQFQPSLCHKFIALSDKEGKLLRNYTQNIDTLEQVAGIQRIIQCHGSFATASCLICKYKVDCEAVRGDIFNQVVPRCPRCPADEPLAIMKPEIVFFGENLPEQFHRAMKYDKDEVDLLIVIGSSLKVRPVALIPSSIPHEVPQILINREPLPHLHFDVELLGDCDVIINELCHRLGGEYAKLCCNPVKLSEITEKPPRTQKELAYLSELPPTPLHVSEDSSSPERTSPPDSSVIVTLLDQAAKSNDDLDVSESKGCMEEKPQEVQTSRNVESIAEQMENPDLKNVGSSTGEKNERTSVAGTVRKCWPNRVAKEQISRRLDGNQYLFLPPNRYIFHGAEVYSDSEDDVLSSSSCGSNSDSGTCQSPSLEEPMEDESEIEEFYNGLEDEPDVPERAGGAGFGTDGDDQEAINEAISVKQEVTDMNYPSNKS
Experiment: Mass spectrometry based assay to identify modulators of SIRT1 activity (deacetylation of p53-based acetylated peptide)
Assay type: biochemical
Conditions: 10 nM SIRT1, 0.5 μM peptide substrate, 120 μM βNAD+, 25 minutes at 25° C.; for EC1.5 μM: SIRT1 activation
From the text: A mass spectrometry based assay was used to identify modulators of SIRT1 activity. The mass spectrometry based assay utilizes a peptide having 20 amino acid residues as follows: Ac-EE-K(biotin)-GQSTSSHSK(Ac)NleSTEG-K(5TMR)-EE-NH2 (SEQ ID NO: 1) wherein K(Ac) is an acetylated lysine residue and Nle is a norleucine. The peptide is labeled with the fluorophore 5TMR (excitation 540 nm/emission 580 nm) at the C-terminus. The sequence of the peptide substrate is based on p53 with several modifications. In addition, the methionine residue naturally present in the sequence was replaced with the norleucine because the methionine may be susceptible to oxidation during synthesis and purification.
The mass spectrometry assay is conducted as follows: 0.5 μM peptide substrate and 120 μM βNAD^+ is incubated with 10 nM SIRT1 for 25 minutes at 25° C. in a reaction buffer (50 mM Tris-acetate pH 8, 137 mM NaCl, 2.7 mM KCl, 1 mM MgCl2, 5 mM DTT, 0.05% BSA). Test compounds may be added to the reaction as described above. […] After the 25 minute incubation with SIRT1, 10 μL of 10% formic acid is added to stop the reaction. Reactions are sealed and frozen for later mass spec analysis. Determination of the mass of the substrate peptide allows for precise determination of the degree of acetylation (i.e. starting material) as compared to deacetylated peptide (product).
A control for inhibition of sirtuin activity is conducted by adding 1 μL of 500 mM nicotinamide as a negative control at the start of the reaction (e.g., permits determination of maximum sirtuin inhibition). A control for activation of sirtuin activity is conducted using 10 nM of sirtuin protein, with 1 μL of DMSO in place of compound, to determine the amount of deacetylation of the substrate at a given timepoint within the linear range of the assay. This timepoint is the same as that used for test compounds and, within the linear range, the endpoint represents a change in velocity.
For the above assay, SIRT1 protein was expressed and purified as follows. […] The protein was expressed by induction with 1 mM IPTG as an N-terminal His-tag fusion protein at 18° C. overnight and harvested at 30,000×g. Cells were lysed with lysozyme in lysis buffer (50 mM Tris-HCl, 2 mM Tris[2-carboxyethyl]phosphine (TCEP), 10 μM ZnCl2, 200 mM NaCl) and further treated with sonication for 10 min for complete lysis. The protein was purified over a Ni-NTA column (Amersham) and fractions containing pure protein were pooled, concentrated and run over a sizing column (Sephadex S200 26/60 global). The peak containing soluble protein was collected and run on an Ion-exchange column (MonoQ). Gradient elution (200 mM-500 mM NaCl) yielded pure protein. This protein was concentrated and dialyzed against dialysis buffer (20 mM Tris-HCl, 2 mM TCEP) overnight. The protein was aliquoted and frozen at −80° C. until further use.
Sirtuin modulating compounds that activated SIRT1 were identified using the assay described above and are shown below in Tables 1 and 2. The EC1.5 values for the activating compounds are represented by A (EC1.5<1.0 μM), B (EC1.5 1-25 μM), C (EC1.5>25 μM). The percent maximum fold activation is represented by A (Fold activation>200%) or B (Fold Activation<200%).

SMILES | % Fold Act. (percent maximum fold activation) | EC1.5 μM
Cn1ccnc1C(=O)Nc1cccc2c(=O)n(C)c(-c3cccc(C(F)(F)F)c3)nc12 [Compound 238] | A (Fold activation>200%) | B (EC1.5 1-25 μM)
CC(C)Cn1c(-c2cccc(C(F)(F)F)c2)nc2c(C(=O)Nc3ccccn3)cccc2c1=O [Compound 271] | B (Fold Activation<200%) | B (EC1.5 1-25 μM)
Cn1c(-c2ccccc2C(F)F)nc2c(C(=O)Nc3ccccn3)cccc2c1=O [Compound 322] | A (Fold activation>200%) | B (EC1.5 1-25 μM)
Cn1c(-c2cccc(C(F)(F)F)c2)nc2c(NC(=O)C3CCC(=O)N3)cccc2c1=O (stereo not drawn) [Compound 339, N-(3-methyl-4-oxo-2-(3-(trifluoromethyl)phenyl)-3,4-dihydroquinazolin-8-yl)-5-oxopyrrolidine-2-carboxamide] | B (Fold Activation<200%) | C (EC1.5>25 μM)
O=C(Nc1nccs1)c1cncc2c(=O)cc(-c3cccc(C(F)(F)F)c3)[nH]c12 [Compound 449, 4-oxo-N-(thiazol-2-yl)-2-(3-(trifluoromethyl)phenyl)-1,4-dihydro-1,6-naphthyridine-8-carboxamide] | A (Fold activation>200%) | A (EC1.5<1.0 μM)
Cc1nc(NC(=O)c2cccc3c(=O)n(C)c(-c4cccc(C(F)(F)F)c4)nc23)sc1C [Compound 298] | A (Fold activation>200%) | A (EC1.5<1.0 μM)
O=C(Nc1cccc2c(=O)[nH]c(-c3ccccc3OC(F)(F)F)nc12)c1cnccn1 [Compound 318] | A (Fold activation>200%) | A (EC1.5<1.0 μM)
O=C(Nc1nccs1)c1cccc2c(=O)cc(-c3cccc(C(F)(F)F)c3)[nH]c12 [Compound 404] | A (Fold activation>200%) | A (EC1.5<1.0 μM)
O=C(Nc1nccs1)c1cccc2c(=O)cc(-c3cccc(OC(F)(F)F)c3)[nH]c12 [Compound 429] | A (Fold activation>200%) | A (EC1.5<1.0 μM)
Cn1c(-c2ccccc2S(C)(=O)=O)nc2c(C(=O)Nc3ccccn3)cccc2c1=O [Compound 221] | A (Fold activation>200%) | B (EC1.5 1-25 μM)
O=C(Nc1cccc2c(=O)cc(-c3cccc(C(F)(F)F)c3)[nH]c12)c1cccc(CN2CCOCC2)n1 [Compound 448] | A (Fold activation>200%) | A (EC1.5<1.0 μM)
Cn1c(-c2cccc(Cl)c2)nc2c(C(=O)Nc3cccnc3)cccc2c1=O [Compound 243] | B (Fold Activation<200%) | B (EC1.5 1-25 μM)
Cc1nc(C)c(-c2nc3c(NC(=O)c4cnccn4)cccc3c(=O)n2C)s1 [Compound 287, N-(2-(2,4-dimethylthiazol-5-yl)-3-methyl-4-oxo-3,4-dihydroquinazolin-8-yl)pyrazine-2-carboxamide] | A (Fold activation>200%) | B (EC1.5 1-25 μM)
Cn1c(-c2cccc(C(F)(F)F)c2)nc2c(C(=O)Nc3cccc(OCC(O)CO)c3)cccc2c1=O (stereo not drawn) [Compound 360] | A (Fold activation>200%) | A (EC1.5<1.0 μM)
Cn1c(-c2cccnc2)nc2c(NC(=O)c3cnccn3)cccc2c1=O [Compound 278] | B (Fold Activation<200%) | B (EC1.5 1-25 μM)
Cn1ccnc1C(=O)Nc1cccc2c(=O)cc(-c3cccc(C(F)(F)F)c3)[nH]c12 [Compound 420] | A (Fold activation>200%) | A (EC1.5<1.0 μM)
O=C(Nc1nccs1)c1cccc2c(=O)cc(-c3ccccc3C(F)(F)F)[nH]c12 [Compound 427] | A (Fold activation>200%) | A (EC1.5<1.0 μM)
O=C(Nc1cccc2c(=O)[nH]c(-c3cccc(OC(F)F)c3)nc12)c1cnccn1 [Compound 316] | B (Fold Activation<200%) | C (EC1.5>25 μM)
Cn1c(-c2ccccc2OC(F)F)nc2c(NC(=O)c3cnccn3)cccc2c1=O [Compound 312] | A (Fold activation>200%) | A (EC1.5<1.0 μM)
Cn1c(-c2cccc(C(F)(F)F)c2)nc2c(C(=O)Nc3cccnc3)cccc2c1=O [Compound 265] | A (Fold activation>200%) | B (EC1.5 1-25 μM)
Cn1c(-c2cccc(C(F)(F)F)c2)nc2c(C(=O)Nc3cccc(N4CCCC4)n3)cccc2c1=O [Compound 350, 3-methyl-4-oxo-N-(6-(pyrrolidin-1-yl)pyridin-2-yl)-2-(3-(trifluoromethyl)phenyl)-3,4-dihydroquinazoline-8-carboxamide] | B (Fold Activation<200%) | B (EC1.5 1-25 μM)
Cn1c(-c2cccc(C(F)(F)F)c2)nc2c(C(=O)Nc3nc(CN4CCOCC4)cs3)cccc2c1=O [Compound 309] | A (Fold activation>200%) | A (EC1.5<1.0 μM)
O=C(Nc1cccc2c(=O)cc(-c3cccc(Cl)c3)[nH]c12)c1cscn1 [Compound 446] | A (Fold activation>200%) | B (EC1.5 1-25 μM)
Cn1ccc(C(=O)Nc2cccc3c(=O)n(C)c(-c4cccc(C(F)(F)F)c4)nc23)n1 [Compound 247] | B (Fold Activation<200%) | B (EC1.5 1-25 μM)
Cn1cnc(-c2nc3c(NC(=O)c4cnccn4)cccc3c(=O)n2C)c1 [Compound 288] | B (Fold Activation<200%) | C (EC1.5>25 μM)
O=C(Nc1cnccn1)c1cccc2c(=O)cc(-c3cccc(C(F)F)c3)[nH]c12 [Compound 432] | A (Fold activation>200%) | A (EC1.5<1.0 μM)
Cn1nccc1-c1nc2c(NC(=O)c3cnccn3)cccc2c(=O)n1C [Compound 292] | B (Fold Activation<200%) | C (EC1.5>25 μM)
O=C(Nc1ccccn1)c1cccc2c(=O)[nH]c(-c3ccccc3C(F)(F)F)nc12 [Compound 321] | A (Fold activation>200%) | B (EC1.5 1-25 μM)
Cn1ccnc1-c1nc2c(NC(=O)c3cnccn3)cccc2c(=O)n1C [Compound 289] | B (Fold Activation<200%) | C (EC1.5>25 μM)
Cn1ccc(-c2nc3c(C(=O)Nc4ccccn4)cccc3c(=O)n2C)n1 [Compound 228] | B (Fold Activation<200%) | B (EC1.5 1-25 μM)
